Test results from PMC6984391, “Anion carriers as potential treatments for cystic fibrosis: transport in cystic fibrosis cells, and additivity to channel-targeting drugs” (Chemical Science, 2019).

System: YFP-FRT cells
Test: YFP fluorescence plate reader assay of anion transport in YFP-FRT cells
Format: cell-based, Fischer rat
Conditions: for Corrected absolute initial slope |dF/dT|: transporter 50 μM, DMSO 0.5% v/v, DMSO-only subtracted, I^– 100 mM; for anion transport activity in YFP-FRT cells (in words): 50 μM
Description: We treated YFP-FRT cells with anionophores (final concentration, 1–50 μM) or the vehicle DMSO (0.1–0.5% v/v) by direct addition to the phosphate-buffered saline (PBS) bathing the cells. After incubating YFP-FRT cells with anionophores for 10 minutes at 37 °C, we evaluated anion transport activity by adding I^– (100 mM), using a PBS iodide solution with Cl^– replaced by I^–, and following cell fluorescence for 14 s. FRT cells are relatively impermeable to anions because they lack key ion channels found in epithelial cells, including CFTR.[33] Thus, in the absence of anionophore, iodide cannot enter YFP-FRT cells and no quenching of fluorescence occurs. By contrast, in the presence of an anionophore, iodide influx occurs leading to fluorescence quenching.[29]
To quantify anion transport by different anionophores, we fitted first order exponential functions to the iodide-induced fluorescence decay to measure the initial slope, averaging values over multiple experiments. Fig. 2b and Table 1 summarise the data. Consistent with our previous results,[29] we observed a wide range of anion transport activity. […] We therefore selected for further study 11, 12, 15 and 19.
FRT cells stably expressing the halide sensor YFP-H148Q/I152L6 were generous gifts of AS Verkman (University of California, San Francisco), while CFBE41o- cells7 stably expressing YFP (YFP-CFBE cells) were a generous gift of LJV Galietta (Telethon Institute for […]
Genetics and Medicine). […]
U ml-1 penicillin and […] streptomycin. All cells were incubated at 37 °C in a humidified atmosphere with 5% CO2. […]
Fluorescence plate reader assay […]
quenching of YFP fluorescence at 37 °C using a microplate reader following the method of Galietta et al..9 The microplate reader (model: FLUORstar Omega; BMG LABTECH Ltd., Aylesbury, UK) was equipped with a syringe pump and excitation (500 ± 10 nm) and emission (535 ± 15 nm) filters (Chroma Technology GmbH, Olching, Germany). After washing cells twice with PBS (composition (mM): 137 NaCl, 2.7 KCl, 8.1 Na2HPO4, 1.5 KH2PO4, 1 CaCl2 and 0.5 MgCl2, pH 7.40), cells were incubated with test anionophores (1 – 50 µM) or the vehicle (DMSO [0.1 – 0.5% v v-1]) in 40 µl of PBS for 10 – 120 minutes according to the experimental design. Other compounds, including forskolin, ivacaftor and channel inhibitors were added to […]
the PBS bathing cells 10 minutes prior to PBS iodide addition, whereas UTP was added to cells with the PBS iodide solution. Fluorescence was measured for 14 seconds; 2 seconds before and 12 seconds after injection of 110 µl PBS iodide solution (137 mM Cl- replaced by I-) into each well (to obtain a final concentration of I- of 100 mM).
We expressed cell fluorescence values (F) relative to the fluorescence value immediately before I- injection (F0), excluding the initial decrease, which likely represents the quenching of extracellular YFP released from cells and signal reduction accompanying the increase in solution volume bathing cells. To quantify anion transport by test anionophores, we determined the initial slope of the fluorescence decay following I - addition by fitting first order exponential functions to the last 12 seconds of each fluorescence recording. In each experim ent, n values represent the mean of two replicates and all treatments were tested at least three times using different microplates. […]
FRT cells was selected and the cells were perfused with (i) PBS for 5 minutes then (ii) PBS containing I- (10 mM) (made by preparing PBS with 127 mM NaCl to maintain osmolarity) for 5 minutes and finally (iii) PBS for 30 minutes to remove thoroughly I- from the perfusion chamber. YFP-FRT cells were repeatedly treated with I- (10 mM) and then washed with PBS […]
During all interventions, the rate of solution perfusion was 8 – 10 ml min-1; temperature was 37 °C and except for the first

Compound	Corrected absolute initial slope |dF/dT|	anion transport activity in YFP-FRT cells (in words)
COCCOCCOC(=O)[C@]12CC[C@@H](NC(=O)Nc3ccc(C(F)(F)F)cc3)C[C@@H]1C[C@@H](NC(=O)Nc1ccc(C(F)(F)F)cc1)CC2 [Compound 9]	1.1 ×10^–3 s^–1	–
COCCOCCOC(=O)[C@]12CC[C@@H](NC(=O)Nc3cc(C(F)(F)F)cc(C(F)(F)F)c3)C[C@@H]1C[C@@H](NC(=O)Nc1cc(C(F)(F)F)cc(C(F)(F)F)c1)CC2 [Compound 10]	0.7 ×10^–3 s^–1	–
CCOC(=O)[C@]12CC[C@@H](NC(=S)Nc3ccc([N+](=O)[O-])cc3)C[C@@H]1C[C@@H](NC(=S)Nc1ccc([N+](=O)[O-])cc1)CC2 [Compound 12]	17.2 ×10^–3 s^–1	notable decays in fluorescence
CCCCCCCCOC(=O)[C@]12CC[C@@H](NC(=S)Nc3ccc([N+](=O)[O-])cc3)C[C@@H]1C[C@@H](NC(=S)Nc1ccc([N+](=O)[O-])cc1)CC2 [Compound 13]	3.3 ×10^–3 s^–1	intermediate levels
CCOC(=O)[C@]12CC[C@@H](NC(=S)Nc3cc(C(F)(F)F)cc(C(F)(F)F)c3)C[C@@H]1C[C@@H](NC(=S)Nc1cc(C(F)(F)F)cc(C(F)(F)F)c1)CC2 [Compound 15]	22.6 ×10^–3 s^–1	notable decays in fluorescence
FC(F)(F)c1ccc(NC(=S)NCCN(CCNC(=S)Nc2ccc(C(F)(F)F)cc2)CCNC(=S)Nc2ccc(C(F)(F)F)cc2)cc1 [Compound 18]	1.1 ×10^–3 s^–1	–
FC(F)(F)c1cc(NC(=S)NCCN(CCNC(=S)Nc2cc(C(F)(F)F)cc(C(F)(F)F)c2)CCNC(=S)Nc2cc(C(F)(F)F)cc(C(F)(F)F)c2)cc(C(F)(F)F)c1 [Compound 19]	12.2 ×10^–3 s^–1	notable decays in fluorescence
